Results from patent US20060199211A1, “Fluorous-based microarrays” (priority 2005, published 2006).

Assays:
[1] = test system: lectin from Triticum vulgaris (wheat germ, FITC-WGA); experiment: Fluorous carbohydrate microarray screened with FITC-labeled wheat germ lectin (fluorescence scan at 488 nm); assay type: binding; settings: carbohydrates 4-11 spotted (2 mM in 80% methanol/water) on fluorinated glass slide; FITC-WGA in PBS buffer (0.25 M), 30 min; WGA bound only to this one
Experimental: (§1) With the fluorous-tagged carbohydrates in hand, the ability of the single C8F17 tail to anchor these mono- and disaccharides to a glass slide surface even after repeated washes was examined. The fluorous-tagged carbohydrates 4-11 were dissolved in 80% methanol/water and were spotted onto fluoroalkylsilane-derivatized glass slides employing a standard robot used for DNA arraying. The slides then were incubated for 30 minutes with the commercially available FITC (fluorescein isothiocyanate)-labeled lectins from Triticum vulgaris (wheat germ, FITC-WGA) in phosphate buffered saline (PBS buffer) (0.25 M) and Arachis hypogaea (peanut, FITC-PNA) in PBS buffer (0.5 M) and rinsed repeatedly with the assay buffer followed by distilled water. After drying, the slide was scanned with a standard fluorescent slide scanner at 488 nm to reveal the carbohydrate-binding specificities of these two lectins. As expected the wheat germ lectin WGA bound only to the fluorous-tagged N-acetylglucosamine (5). In contrast, the peanut lectin PNA bound to both galactose (7) and lactose (10) in the array experiment. This lectin is known to bind to galactose both alone and in the context of the lactose disaccharide. […]

[2] = target: T1, lectin from Arachis hypogaea (peanut, FITC-PNA) (Arachis hypogaea, UniProt P02872); experiment: Fluorous carbohydrate microarray screened with FITC-labeled peanut lectin (fluorescence scan at 488 nm); assay type: binding; settings: carbohydrates 4-11 spotted (2 mM in 80% methanol/water) on fluorinated glass slide; FITC-PNA in PBS buffer (0.5 M), 30 min
T1 construct: purchased EY Laboratories, San Mateo, Calif
T1 sequence (P02872 24-273): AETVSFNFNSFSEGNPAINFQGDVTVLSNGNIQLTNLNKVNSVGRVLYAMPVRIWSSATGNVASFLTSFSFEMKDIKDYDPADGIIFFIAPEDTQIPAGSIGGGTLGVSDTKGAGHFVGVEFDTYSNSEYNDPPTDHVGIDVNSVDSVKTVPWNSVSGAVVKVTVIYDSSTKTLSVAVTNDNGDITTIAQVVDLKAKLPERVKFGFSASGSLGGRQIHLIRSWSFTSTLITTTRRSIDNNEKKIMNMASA
Experimental: as §1

## CC(=O)N[C@H]1[C@H](OCCCCOCCCC(F)(F)C(F)(F)C(F)(F)C(F)(F)C(F)(F)C(F)(F)C(F)(F)C(F)(F)F)O[C@H](CO)[C@@H](O)[C@@H]1O [Compound 5, 3-(perfluorooctyl)propanyloxybutanyl-2-deoxy-2-acylamino-β-D-glucopyranoside]
[1]
  binding of wheat germ lectin WGA to arrayed fluorous-tagged carbohydrate: bound

## OC[C@H]1O[C@@H](OCCCCOCCCC(F)(F)C(F)(F)C(F)(F)C(F)(F)C(F)(F)C(F)(F)C(F)(F)C(F)(F)F)[C@H](O)[C@@H](O)[C@H]1O [Compound 7]
[2]
  binding of peanut lectin PNA to arrayed fluorous-tagged carbohydrate: bound

## OC[C@H]1O[C@@H](O[C@H]2[C@H](O)[C@@H](O)[C@H](OCCCCOCCCC(F)(F)C(F)(F)C(F)(F)C(F)(F)C(F)(F)C(F)(F)C(F)(F)C(F)(F)F)O[C@@H]2CO)[C@H](O)[C@@H](O)[C@H]1O [Compound 10]
[2]
  binding of peanut lectin PNA to arrayed fluorous-tagged carbohydrate: bound
